Assay results taken from patent US20190078143A1, “METHOD FOR TREATING NEURODEVELOPMENTAL DISORDERS” (New York University, priority 2017, published 2019).
“Also recorded” adds a separate entry of the source.

How the values were obtained:
MIA offspring = assay: Behavioral assays (USV, marble burying, open field, three-chamber sociability) in offspring of poly(I:C)-injected dams; type: in vivo, mouse; settings: poly(I:C)-injected mothers pre-treated with vancomycin, oral gavage every two days from 7 days before breeding
Protocol: Mice were mated overnight and females were checked daily for the presence of seminal plugs, noted as embryonic day 0.5. On E12.5, pregnant female mice were weighed and injected with a single dose (20 mg/kg; i.p.) of poly(I:C) (Sigma Aldrich) or PBS vehicle. Each dam was returned to its cage and left undisturbed until the birth of its litter. All pups remained with the mother until weaning on postnatal day 21-28 (P21-P28), at which time mice were group housed at a maximum of 5 per cage with same-sex littermates. […]
On P9, both male and female offspring mice were removed from the nest and habituated to the testing room for 30 min. […] Ultrasonic vocalizations (USVs) were detected for 3 min using an UltraSoundGateCM16/CMPA microphone (AviSoft) in the sound attenuation chamber under stable temperature and light control, and recorded with SAS Prolab software (AviSoft). USVs were measured between 33-125 kHz using Ultravox software (Noldus Information Technology, USA). Due to the unreliability of automated USV scoring, all pup USV calls were counted manually and plotted on the y-axis. […]
8-12-week-old male mice were tested for social behavior using the three-chamber social approach paradigm. […] Experimental mice were given 10 min to explore both chambers and measured for approach behavior as interaction time (i.e. sniffing, approach) with targets in each chamber (within 2 cm). […]

[1] = system: cortical patches (SATB2) in primary somatosensory cortex; assay: Cortical patches by SATB2 immunohistochemistry in adult MIA offspring brains; type: in vivo, mouse; settings: offspring of poly(I:C)-injected mothers pre-treated with vancomycin
Protocol: (§1) Mice were mated overnight and females were checked daily for the presence of seminal plugs, noted as embryonic day 0.5. On E12.5, pregnant female mice were weighed and injected with a single dose (20 mg/kg; i.p.) of poly(I:C) (Sigma Aldrich) or PBS vehicle. Each dam was returned to its cage and left undisturbed until the birth of its litter. All pups remained with the mother until weaning on postnatal day 21-28 (P21-P28), at which time mice were group housed at a maximum of 5 per cage with same-sex littermates.
For co-housing experiments, age-matched SFB-absent mice (from Jackson Laboratory) were co-housed with SFB-present mice (from Taconic Biosciences) in sterilized cages for two weeks at a ratio of 2:3, with unrestricted access to food and water. For SFB-gavaging experiments, four fecal pellets of SFB mono-colonized mice (provided by Dan Littman) were dissolved in 20 ml sterile PBS and filtered through a 100 μm cell strainer. […]
Adult male mice were perfused and fixed with 4% paraformaldehyde in PBS for overnight at 4° C. […] The cortical malformation images were analyzed using Image J software. […]
Cortical patches were identified as cortical regions devoid of SATB2 expression. The size of the cortical patches in the S1 was calculated using Zen software (Carl Zeiss). […] SATB2 positive cells were quantified manually.

[2] = system: Th17 cells in the small intestine; assay: Flow cytometry of ileal CD4+ T cells for IL-17a and RORγt in poly(I:C)-treated dams; type: in vivo, mouse; settings: poly(I:C)-injected pregnant dams, E14.5, compared to control group
Protocol: (§2) For co-housing experiments, age-matched SFB-absent mice (from Jackson Laboratory) were co-housed with SFB-present mice (from Taconic Biosciences) in sterilized cages for two weeks at a ratio of 2:3, with unrestricted access to food and water. For SFB-gavaging experiments, four fecal pellets of SFB mono-colonized mice (provided by Dan Littman) were dissolved in 20 ml sterile PBS and filtered through a 100 μm cell strainer. 200 μl of fecal suspensions were gavaged via oral route to 4 week-old female Jackson mice. Control mice were gavaged with PBS. The SFB colonization was tested on day 7 following co-housing or SFB-gavaging. For ablation of intestinal bacteria, Taconic-derived female mice were orally gavaged with vancomycin hydrochloride (Fisher) (2.5 mg/kg) every two days, starting 7 days prior to breeding. Mouse fecal pellets were collected and stored at −80° C. before and after vancomycin treatments.
For mononuclear cell isolations, both mesenteric fat tissues and Peyer's patches were carefully removed from intestinal tissues. […]
Mononuclear cells were incubated with or without 50 ng/ml phorbol myristate acetate (PMA) (Sigma) and 500 ng/ml ionomycin (Sigma) in the presence of GolgiStop (BD) in complete T cell media at 37° C. for 5 h. […] All data were re-analyzed using FlowJo (Tree Star).

IL-17a = assay: Maternal plasma IL-17a ELISA after poly(I:C) at E12.5; type: in vivo, mouse; settings: poly(I:C)-injected pregnant dams, 48 hrs after poly(I:C) at E12.5, compared to control group
Protocol: as §1
as §2, with “For ablation of intestinal bacteria, Taconic-derived female mice were orally gavaged with vancomycin hydrochloride (Fisher) (2.5 mg/kg) every two days, starting 7 days prior to breeding. Mouse fecal pellets were collected and stored at −80° C. before and after vancomycin treatments.” left out
IL-17a, TNF-α, IFN-β, IL-1β and IL-23 levels were measured according to the manufacturer's protocol (BioLegend). IL-6 and IFN-γ levels were measured according to the manufacturer's protocol (eBioscience).

[3] = system: segmented filamentous bacteria (SFB); assay: 16S rRNA qPCR of SFB levels in mouse fecal samples; type: in vivo; settings: B6 mice before/after vancomycin treatment
Protocol: as §2
Bacterial genomic DNA was isolated from the fecal pellets of mice with phenol-chloroform extraction. qPCR was performed to quantify relative abundance of SFB, human commensal bacteria or total bacteria using group specific 16S rDNA primers (Table 3, FIG. 16). Undetected qPCR values from non-colonized samples were replaced with a Ct value of 40 for the purpose of comparison.

[4] = system: segmented filamentous bacteria (SFB); settings: commensal bacteria in laboratory mice, general statement; cited from earlier work

For `CN[C@H](CC(C)C)C(=O)N[C@H]1C(=O)N[C@@H](CC(N)=O)C(=O)N[C@H]2C(=O)N[C@H]3C(=O)N[C@H](C(=O)N[C@H](C(=O)O)c4cc(O)cc(O)c4-c4cc3ccc4O)[C@H](O)c3ccc(c(Cl)c3)Oc3cc2cc(c3O[C@@H]2O[C@H](CO)[C@@H](O)[C@H](O)[C@H]2O[C@H]2C[C@](C)(N)[C@H](O)[C@H](C)O2)Oc2ccc(cc2Cl)[C@H]1O` [vancomycin], the “development of behavioral abnormalities in MIA offspring (USV, marble burying, open field center time, % interaction)” value (MIA offspring) was “prevented induction of behavioral abnormalities; also recorded: prevented development of all four behavioral abnormalities”, the “cortical patches in adult offspring” value [1] was “failed to develop cortical patches” and the “proportion of Th17 cells in the small intestine” value [2] was “decrease in the proportion of Th17 cells”. For the same compound, the “levels of IL-17a in the maternal plasma” value (IL-17a) was “reduction in the levels of IL-17a”, the “intestinal colonization by SFB (qPCR of fecal samples)” value [3] was “severely reduced” and the “susceptibility of SFB to vancomycin” value [4] was “susceptible”.
